# Measurements published in US12528816B2, “Substituted imidazo [1,2-b] pyridazines and [1, 2, 4] triazolo [ 4,3-b] pyridazines as camkii inhibitors” (Cardurion Pharmaceuticals, INC., priority 2020, dated 2026).
# Target: T1, human CaMKIIδ (Homo sapiens, UniProt Q13557)
# T1 construct: Full-length, glutathione-S-transferase(GST)-tagged, human CaMKIIδ was purchased from Carna Biosciences; purchased Carna Biosciences (CaMKIIδ); Wako Pure Chemical Industries (calmodulin) 02-111
# Assay: Evaluation of in vitro CaMKII inhibitory activity (binding assay, TR-FRET)
# Conditions: human CaMKIIδ, TR-FRET binding assay; class symbols A/B/C; read-out: Act (CaMKII inhibitory activity, binding assay)
# Method in brief: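 Inhibitors, in eight concentrations of 4-fold dilution, were incubated 1 h at room temperature with a protein–fluorescent probe premix preformed 30 min on ice, containing calmodulin and terbium anti-GST antibody. Displacement read by TR-FRET in duplicate; IC50 by logistic fitting.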
row,SMILES,IC50
1,"[2H]C([2H])([2H])Oc1ccnc(-c2cnc3ccc(-c4ccc(F)c(O[C@@H](C)Cn5cnnn5)c4)nn23)c1C#N [Example 473, 2-[6-(4-fluoro-3-{[(2S)-1-(1H-tetrazol-1-yl)propan-2-yl]oxy}phenyl)imidazo[1,2-b]pyridazin-3-yl]-4-(methoxy-d3)pyridine-3-carbonitrile]",< 10 nM
2,C[C@@H](Cn1cnnn1)Oc1cccc(-c2ccn3ncc(-c4cccc(C(=O)Nc5ccccc5)c4)c3n2)c1 [compound 81],10 to 100 nM
3,C[C@@H](Cn1cnnn1)Oc1cccc(-c2ccn3ncc(-c4cccc(C(=O)NCCN5CCS(=O)(=O)CC5)c4)c3n2)c1 [compound 87],< 10 nM
4,C[C@@H](Cn1cnnn1)Oc1cc(-c2ccn3ncc(-c4cccc(OCC5CC5)c4)c3n2)ccc1F [compound 54],10 to 100 nM
5,CCN(CC)C(=O)CNC(=O)c1cccc(-c2cnn3ccc(-c4cccc(O[C@@H](C)Cn5cnnn5)c4)nc23)c1 [compound 68],< 10 nM
6,CNC(=O)c1ccc(-c2cnn3ccc(-c4ccc(F)c(O[C@@H](C)Cn5cnnn5)c4)nc23)cc1 [compound 37],< 10 nM
7,C[C@@H](Cn1cnnn1)Oc1cccc(-c2ccn3ncc(-c4cccc(C(=O)NCCCN5CCOCC5)c4)c3n2)c1 [compound 78],< 10 nM
8,C[C@@H](Cn1cnnn1)Oc1cccc(-c2ccn3ncc(-c4cccc(C(=O)Nc5ccccn5)c4)c3n2)c1 [compound 83],< 10 nM
9,C[C@@H](Cn1cnnn1)Oc1cc(-c2ccc3ncc(-c4cn(CCCO)nc4C#N)n3n2)ccc1F [compound 222],10 to 100 nM
10,"COC(=O)c1cccc(-c2cnn3ccc(-c4ccc(C#N)c(O[C@@H](C)Cn5cnnn5)c4)nc23)c1 [compound 2, methyl 3-[5-(4-cyano-3-{[(2S)-1-(1H-tetrazol-1-yl)propan-2-yl]oxy}phenyl)pyrazolo[1,5-a]pyrimidin-3-yl]benzoate]",> 100 nM
11,C[C@@H](Cn1cnnn1)Oc1cc(-c2ccc3ncc(-c4cnn(CCCO)c4C#N)n3n2)ccc1F [compound 225],< 10 nM
12,COc1ncccc1-n1cnc2ccc(-c3ccc(F)c(O[C@@H](C)Cn4cnnn4)c3)nc21 [compound 174],10 to 100 nM
13,C[C@@H](Cn1cnnn1)Oc1cccc(-c2ccn3ncc(-c4cccc(C(=O)N5CCC(C)(O)CC5)c4)c3n2)c1 [compound 99],10 to 100 nM
14,C[C@@H](Cn1cnnn1)Oc1cc(-c2ccc3ncn(-c4cccc5c4C(=O)N(C)C5=O)c3n2)ccc1F [compound 193],> 100 nM
15,C[C@@H](Cn1nnnc1N)Oc1cccc(-c2ccn3ncc(-c4cccs4)c3n2)c1 [compound 59],< 10 nM
16,COc1cccc(-c2cnn3ccc(-c4ccc(F)c(O[C@@H](C)Cn5cnnn5)c4)nc23)c1 [compound 32],< 10 nM
17,C[C@@H](Cn1cnnn1)Oc1cc(-c2ccn3ncc(-c4cccc(C(=O)O)c4)c3n2)ccc1F [compound 7],< 10 nM
18,COc1cc(F)cc(-c2cnc3ccc(-c4cc(N[C@@H](C)Cn5cnnn5)ccn4)nn23)c1C#N [compound 481],< 10 nM
19,CC(=O)N1CCC(NC(=O)c2cccc(-c3cnn4ccc(-c5cccc(O[C@@H](C)Cn6cnnn6)c5)nc34)c2)CC1 [compound 75],< 10 nM
20,CC(=O)N1CCN(c2ccc(-c3cnn4ccc(-c5ccc(F)c(O[C@@H](C)Cn6cnnn6)c5)nc34)cc2)CC1 [compound 42],10 to 100 nM
21,C[C@@H](Cn1cnnn1)Oc1cccc(-c2ccn3ncc(-c4cccc(C(=O)NCCc5ccncc5)c4)c3n2)c1 [compound 107],< 10 nM
22,C[C@@H](Cn1cnnn1)Oc1cc(-c2ccn3ncc(-c4cccc(F)c4C(N)=O)c3n2)ccc1F [compound 155],10 to 100 nM
23,CC[C@@H](Cn1cnnn1)Oc1cc(-c2ccc3ncc(-c4nccc(OC)c4C#N)n3n2)ccc1F [compound 476],< 10 nM
24,COc1ccnc(-c2cnc3ccc(-c4ccc(F)c(N(C)[C@@H](C)Cn5cnnn5)c4)nn23)c1C#N [compound 479],> 100 nM

# Same assay, conditions: in vitro CaMKII inhibitory activity (binding assay), human CaMKIIδ; read-out: Act
row,SMILES,IC50
1,CCOc1ccnc(-n2cnc3ccc(-c4cccc(O[C@@H](C)Cn5cnnn5)c4)nc32)c1C#N [compound 374],< 10 nM
2,C[C@@H](Cn1cnnn1)Oc1cc(-c2ccc3ncc(-c4ccnc(N)c4C#N)n3n2)ccc1F [compound 233],< 10 nM
3,COc1cc(F)cc(-c2cnc3ccc(-c4cc(O[C@@H](C)Cn5cnnn5)ccn4)nn23)c1C#N [compound 438],< 10 nM
4,C[C@@H](Cn1cnnn1)Oc1cccc(-c2ccc3nnc(-c4ccccc4C#N)n3n2)c1 [compound 373],> 100 nM
5,C[C@@H](Cn1cnnn1)Oc1cccc(-c2ccc3ncc(-c4nccc(N5CCC5)c4C#N)n3n2)c1 [compound 370],10 to 100 nM
6,"COc1cc(Cl)cc(-n2cnc3ccc(-c4cncc(O[C@@H](C)Cn5cnnn5)n4)nc32)c1C#N [Example 448, 4-chloro-2-methoxy-6-[5-(6-{[(2S)-1-(1H-tetrazol-1-yl)propan-2-yl]oxy}pyrazin-2-yl)-3H-imidazo[4,5-b]pyridin-3-yl]benzonitrile]",< 10 nM
7,"COc1cc(F)cc(-c2cnc3ccc(-c4cncc(O[C@@H](C)Cn5cnnn5)n4)nn23)c1C#N [Example 392, 4-fluoro-2-methoxy-6-[6-(6-{[(2S)-1-(1H-tetrazol-1-yl)propan-2-yl]oxy}pyrazin-2-yl)imidazo[1,2-b]pyridazin-3-yl]benzonitrile]",< 10 nM
8,"CC(=O)c1cccc(-c2cnc3ccc(-c4cccc(O[C@@H](C)Cn5cnnn5)c4)nn23)c1C#N [Example 426, 2-acetyl-6-[6-(3-{[(2S)-1-(1H-tetrazol-1-yl)propan-2-yl]oxy}phenyl)imidazo[1,2-b]pyridazin-3-yl]benzonitrile]",< 10 nM
9,C[C@@H](Cn1cnnn1)Oc1cc(-c2ccc3ncc(-c4cc(F)ccc4C#N)n3n2)ncn1 [compound 299],10 to 100 nM
10,C[C@@H](Cn1cnnn1)Oc1cccc(-c2ccc3ncc(-c4cc(F)cnc4C#N)n3n2)c1 [compound 434],< 10 nM
11,C[C@@H](Cn1cnnn1)Oc1cccc(-c2ccc3ncc(-c4cc(F)cnc4OCC(F)F)n3n2)c1 [compound 336],< 10 nM
12,C[C@@H](Cn1cnnn1)Oc1cncc(-c2ccc3ncn(-c4cc(F)cc(OC(F)F)c4C#N)c3n2)n1 [compound 406],10 to 100 nM
13,C[C@@H](Cn1cnnn1)Oc1cccc(-c2ccc3ncc(-c4nc(N(C)C)ccc4C#N)n3n2)c1 [compound 350],10 to 100 nM
14,C[C@@H](Cn1cnnn1)Oc1cccc(-c2ccn3ncc(-c4nccnc4C#N)c3n2)c1 [compound 302],< 10 nM
15,C[C@@H](Cn1cnnn1)Oc1cccc(-c2ccc3ncn(-c4cc(F)cc(C(F)F)c4C#N)c3n2)n1 [compound 407],10 to 100 nM
16,C[C@@H](Cn1cnnn1)Oc1cccc(-c2ccc3ncc(-c4ncc(F)cc4C#N)n3n2)c1 [compound 450],< 10 nM
17,C[C@@H](Cn1cnnn1)Oc1cccc(-c2ccn3ncc(-c4cnccc4C(N)=O)c3n2)c1 [compound 309],10 to 100 nM
18,"COc1ccnc(-c2cnc3ccc(-c4cccc(O[C@@H](C)Cn5cnnn5)c4)nn23)c1C#N [Example 300, 4-methoxy-2-[6-(3-{[(2S)-1-(1H-tetrazol-1-yl)propan-2-yl]oxy}phenyl)imidazo[1,2-b]pyridazin-3-yl]pyridine-3-carbonitrile]",< 10 nM
19,C[C@@H](Cn1cnnn1)Oc1cc(-c2ccc3ncc(-c4nccc(N)c4C#N)n3n2)ccc1F [compound 234],< 10 nM
20,CCc1ccc(C#N)c(-c2cnc3ccc(-c4cccc(O[C@@H](C)Cn5cnnn5)c4)nn23)n1 [compound 371],< 10 nM
